# Reference: PMC8541353, “A Novel Phenylpyrrolidine Derivative: Synthesis and Effect on Cognitive Functions in Rats with Experimental Ishemic Stroke” (Molecules, 2021)
# What was measured:
# rats with MCAO [1] = test: Open field test (OFT) after MCAO; assay type: in vivo, Wistar rats
# Method: (§1) A MCAO animal model was used to characterize the effects of compound 1 on the development and resolution of stroke. At the baseline, we performed the MRI and hole-board test before MCAO surgery. Once animals recovered after the surgery, we stratified them based on their background psycho-emotional status and performed a control MRI to access whether the occlusion was sufficient or not. […] From 24 h to day 7, the neurological status was assessed daily according to the neurological scale (mNSS). By the end of day 7, animals underwent MRI. In addition, MRI was performed on days 14 and 28 (Shceme 3)The hole-board test was repeated on days 10 and 24. The degree of motor function impairment, the deficit of exploratory behavior, and the recovery process were assessed in the beam walking test (BWT), which was performed twice on days 12 and 14. An open field test was carried out on days 16 and 26.
# (§2) In the first experimental series, the following test systems were used: HBT (OpenScience, Russia), OFT (OpenScience), and LDT (OpenScience). The design for the second experimental series was as follows. All rat behavioral changes were evaluated during the four weeks after stroke simulation. […] General neurological disorders were assessed using the modified neurological severity score (mNSS). Motor and cognitive impairment were evaluated using the following functional tests: BWT (OpenScience), HBT (OpenScience), and OFT (OpenScience). […] In this test, motor dysfunction in all four limbs was evaluated; specifically, the number of steps, errors, and slides were counted. The overall score was calculated using the following formula: score = errors + 0.5 × slides × 100/total number of steps [47]. […]
# (§3) The HBT was performed on postoperative days 10 and 24. In this test, the following parameters were assessed: orientational and motor activity (horizontal activity, arbitrary units: number of crossings; vertical activity, arbitrary units: number of head dips), anxiety level (immobility and grooming time and number of grooming and immobility events), and the number of central sector crossings. […]
# rats with MCAO [2] = test: Hole-board test (HBT) after MCAO; assay type: in vivo, Wistar rats
# Method: as §1, §2, §3
smiles,measurement,setting,value
"O=C(CN1CC(c2ccccc2)CC1=O)NCCS(=O)(=O)[O-].[K+] (stereo not drawn) [Compound 1, potassium 2-[2-(2-oxo-4-phenylpyrrolidin-1-yl)acetamido]ethane-1-sulfonate]",Locomotor activity (OFT),rats with MCAO [1],higher
same,Immobility time (OFT) compared to the saline and piracetam groups,rats with MCAO [1]; day 16,lower
same,Number of crossed areas (OFT),rats with MCAO [1]; day 16,statistically significant increase
same,Orientational activity (HBT),rats with MCAO [2]; day 10,escalation
same,Freezing time (HBT),rats with MCAO [2]; days 10 and 24,decreased
same,Total locomotor activity (HBT),rats with MCAO [2]; days 10 and 24,significantly increased
